Experimental data published in ChEMBL document CHEMBL4610129, “Discovery of Novel Selective and Orally Bioavailable Phosphodiesterase-1 Inhibitors for the Efficient Treatment of Idiopathic Pulmonary Fibrosis” (J Med Chem, 2020).
Converted amounts (≈) assume the structure as drawn. The source made the active and inactive calls. The rule behind the calls is not given here.

Key:
[1] = target: Cytochrome P450 2D6 (Homo sapiens, UniProt P10635); test: Inhibition of human CYP2D6; format: ADME
[2] = target: High affinity cGMP-specific 3',5'-cyclic phosphodiesterase 9A (Homo sapiens, UniProt O76083); test: Inhibition of PDE9A2 (181 to 506 residues) (unknown origin) using [3H]-cGMP substrate incubated for 15 mins by liquid scintillation counting method relative to control
[3] = test system: Rattus norvegicus; test: Anti-pulmonary fibrosis activity in Sprague-Dawley rat model of BLM-induced idiopathic pulmonary fibrosis assessed as reduction in end-expiratory pause at 10 mg/kg, po dosed daily for 28 days by mka noninvasive pulmonary monitoring system based method; format: functional, organism-based
[4] = organism: Homo sapiens; test: Anti-pulmonary fibrosis activity in human HLF assessed as reduction in TGF-beta-induced myofibroblast differentiation by measuring reduction in fibronectin protein expression incubated for 48 hrs by Western blot analysis; format: functional
[5] = target: T1, Cytochrome P450 1A2 (Homo sapiens, UniProt P05177); test: Inhibition of human CYP1A2; format: ADME
T1 sequence (P05177 whole entry): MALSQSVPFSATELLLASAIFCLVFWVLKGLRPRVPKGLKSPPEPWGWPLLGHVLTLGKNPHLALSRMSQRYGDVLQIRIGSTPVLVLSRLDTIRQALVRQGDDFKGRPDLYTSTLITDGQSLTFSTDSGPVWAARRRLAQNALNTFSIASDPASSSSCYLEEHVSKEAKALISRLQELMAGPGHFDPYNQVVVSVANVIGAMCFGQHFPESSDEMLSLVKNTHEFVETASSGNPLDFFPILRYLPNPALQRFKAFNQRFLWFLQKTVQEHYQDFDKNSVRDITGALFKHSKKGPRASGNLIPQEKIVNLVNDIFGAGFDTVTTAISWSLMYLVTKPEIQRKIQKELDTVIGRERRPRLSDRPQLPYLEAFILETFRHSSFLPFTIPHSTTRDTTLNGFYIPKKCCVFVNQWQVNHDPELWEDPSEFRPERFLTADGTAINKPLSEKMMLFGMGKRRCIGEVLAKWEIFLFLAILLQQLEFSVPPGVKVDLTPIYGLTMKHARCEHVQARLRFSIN

[6] = target: Cytochrome P450 2C9 (Homo sapiens, UniProt P11712); test: Inhibition of human CYP2C9; format: ADME
[7] = Acute toxicity in mouse; format: organism-based; settings: in vivo
[8] = organism: Homo sapiens; test: Anti-pulmonary fibrosis activity in human HLF assessed as reduction in TGF-beta-induced myofibroblast differentiation by measuring reduction in alpha-SMA protein expression incubated for 48 hrs by immunofluorescence staining analysis; format: functional
[9] = target: cAMP and cAMP-inhibited cGMP 3',5'-cyclic phosphodiesterase 10A (Homo sapiens, UniProt Q9Y233); test: Inhibition of PDE10A (449 to 770 residues) (unknown origin) using [3H]-cAMP substrate incubated for 15 mins by liquid scintillation counting method relative to control
[10] = test system: Rattus norvegicus; test: Anti-pulmonary fibrosis activity in Sprague-Dawley rat model of BLM-induced idiopathic pulmonary fibrosis assessed as reduction in enhanced pause at 10 mg/kg, po dosed daily for 28 days by mka noninvasive pulmonary monitoring system based method; format: functional, organism-based
[11] = target: Cytochrome P450 3A4 (Homo sapiens, UniProt P08684); test: Inhibition of human CYP3A4 using testosterone as substrate; format: ADME
[12] = target: 3',5'-cyclic-AMP phosphodiesterase 4D (Homo sapiens, UniProt Q08499); test: Inhibition of PDE4D2 (86 to 413 residues) (unknown origin) using [3H]-cAMP substrate incubated for 15 mins by liquid scintillation counting method relative to control
[13] = test system: Rattus norvegicus; test: Anti-pulmonary fibrosis activity in Sprague-Dawley rat model of BLM-induced idiopathic pulmonary fibrosis assessed as reduction in mid-expiratory flow at 10 mg/kg, po dosed daily for 28 days by mka noninvasive pulmonary monitoring system based method; format: functional, organism-based
[14] = Cmax in Sprague-Dawley rat at 5 mg/kg, po; format: ADME, organism-based; set-up: dose 5 mg/kg, route oral; settings: in vivo
[15] = target: cGMP-inhibited 3',5'-cyclic phosphodiesterase 3A (Homo sapiens, UniProt Q14432); test: Inhibition of PDE3A (679 to 1087 residues) (unknown origin) using [3H]-cAMP substrate incubated for 15 mins by liquid scintillation counting method relative to control
[16] = AUC (0 to infinity) in Sprague-Dawley rat at 5 mg/kg, po; format: ADME, organism-based; set-up: dose 5 mg/kg, time infinity, route oral; settings: in vivo
[17] = test system: Rattus norvegicus; test: Anti-pulmonary fibrosis activity in Sprague-Dawley rat model of BLM-induced idiopathic pulmonary fibrosis assessed as reduction in end-inspiratory pause at 10 mg/kg, po dosed daily for 28 days by mka noninvasive pulmonary monitoring system based method; format: functional, organism-based
[18] = Half life in Sprague-Dawley rat at 2.5 mg/kg, iv; format: ADME, organism-based; settings: in vivo
[19] = test system: Rattus norvegicus; test: Anti-pulmonary fibrosis activity in Sprague-Dawley rat model of BLM-induced idiopathic pulmonary fibrosis assessed as inhibition of alpha-SMA protein expression at 10 mg/kg, po dosed daily for 28 days by Western blot analysis; format: functional, organism-based
[20] = Half life in rat liver microsomes; format: ADME, Microsome
[21] = target: High affinity cAMP-specific and IBMX-insensitive 3',5'-cyclic phosphodiesterase 8A (Homo sapiens, UniProt O60658); test: Inhibition of PDE8A1 (480 to 820 residues) (unknown origin) using [3H]-cAMP substrate incubated for 15 mins by liquid scintillation counting method relative to control
[22] = Solubility in pH 7.3 solution by HPLC analysis; format: physicochemical
[23] = MRT (0 to t) in Sprague-Dawley rat at 5 mg/kg, po; format: ADME, organism-based; settings: in vivo
[24] = Oral bioavailability in Sprague-Dawley rat at 5 mg/kg; format: ADME, organism-based; settings: in vivo
[25] = test system: Rattus norvegicus; test: Anti-pulmonary fibrosis activity in Sprague-Dawley rat model of BLM-induced idiopathic pulmonary fibrosis assessed as reduction in peak expiratory flow at 10 mg/kg, po dosed daily for 28 days by mka noninvasive pulmonary monitoring system based method; format: functional, organism-based
[26] = test system: Rattus norvegicus; test: Anti-pulmonary fibrosis activity in Sprague-Dawley rat model of BLM-induced idiopathic pulmonary fibrosis assessed as inhibition of alpha-SMA protein expression at 10 mg/kg, po dosed daily for 28 days by immunofluorescence staining analysis; format: functional, organism-based
[27] = organism: Homo sapiens; test: Anti-pulmonary fibrosis activity in human HLF assessed as reduction in TGF-beta-induced myofibroblast differentiation by measuring reduction in fibronectin protein expression incubated for 48 hrs by immunofluorescence staining analysis; format: functional
[28] = target: cGMP-specific 3',5'-cyclic phosphodiesterase (Homo sapiens, UniProt O76074); test: Inhibition of PDE5A1 (535 to 860 residues) (unknown origin) using [3H]-cGMP substrate incubated for 15 mins by liquid scintillation counting method relative to control
[29] = Tmax in Sprague-Dawley rat at 5 mg/kg, po; format: ADME, organism-based; settings: in vivo
[30] = Solubility in pH 6 solution by HPLC analysis; format: physicochemical
[31] = Unbound fraction in human plasma; format: ADME, cell-free
[32] = MRT (0 to t) in Sprague-Dawley rat at 2.5 mg/kg, iv; format: ADME, organism-based; settings: in vivo
[33] = AUC (0 to infinity) in Sprague-Dawley rat at 2.5 mg/kg, iv; format: ADME, organism-based; set-up: dose 2.5 mg/kg, time infinity, route intravenous; settings: in vivo
[34] = AUC (0 to t) in Sprague-Dawley rat at 2.5 mg/kg, iv; format: ADME, organism-based; settings: in vivo

Chain of cGMP-inhibited 3',5'-cyclic phosphodiesterase 3A (Q14432 whole entry, the tested form may be a part): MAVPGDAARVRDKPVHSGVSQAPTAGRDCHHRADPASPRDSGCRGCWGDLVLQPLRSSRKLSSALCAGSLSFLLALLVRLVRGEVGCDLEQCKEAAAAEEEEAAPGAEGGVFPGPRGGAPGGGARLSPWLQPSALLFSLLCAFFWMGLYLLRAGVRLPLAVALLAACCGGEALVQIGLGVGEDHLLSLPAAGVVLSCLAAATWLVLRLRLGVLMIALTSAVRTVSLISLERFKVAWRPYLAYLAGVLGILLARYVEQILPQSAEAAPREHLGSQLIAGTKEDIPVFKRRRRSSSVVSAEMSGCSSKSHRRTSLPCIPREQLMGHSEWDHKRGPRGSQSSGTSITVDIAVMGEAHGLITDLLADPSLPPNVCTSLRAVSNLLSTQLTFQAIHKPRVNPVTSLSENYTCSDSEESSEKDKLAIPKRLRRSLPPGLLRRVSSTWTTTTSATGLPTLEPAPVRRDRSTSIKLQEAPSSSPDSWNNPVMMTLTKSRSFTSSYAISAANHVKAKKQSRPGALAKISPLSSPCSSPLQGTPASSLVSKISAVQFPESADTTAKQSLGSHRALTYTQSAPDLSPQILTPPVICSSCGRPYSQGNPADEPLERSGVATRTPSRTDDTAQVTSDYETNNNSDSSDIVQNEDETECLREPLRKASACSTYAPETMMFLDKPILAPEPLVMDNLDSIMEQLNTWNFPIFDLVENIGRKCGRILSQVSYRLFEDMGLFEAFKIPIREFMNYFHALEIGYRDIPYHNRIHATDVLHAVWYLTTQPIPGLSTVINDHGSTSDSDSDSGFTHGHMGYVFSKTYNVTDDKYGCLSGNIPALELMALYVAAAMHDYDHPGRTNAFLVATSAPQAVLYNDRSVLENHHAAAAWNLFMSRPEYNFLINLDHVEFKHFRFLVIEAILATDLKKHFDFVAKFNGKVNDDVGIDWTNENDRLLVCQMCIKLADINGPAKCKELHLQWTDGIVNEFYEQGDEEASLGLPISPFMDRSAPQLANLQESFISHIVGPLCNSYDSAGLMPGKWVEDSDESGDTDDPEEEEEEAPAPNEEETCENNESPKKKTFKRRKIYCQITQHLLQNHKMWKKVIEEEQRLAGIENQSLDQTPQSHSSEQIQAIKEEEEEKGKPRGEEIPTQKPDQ
Chain of 3',5'-cyclic-AMP phosphodiesterase 4D (Q08499 whole entry, the tested form may be a part): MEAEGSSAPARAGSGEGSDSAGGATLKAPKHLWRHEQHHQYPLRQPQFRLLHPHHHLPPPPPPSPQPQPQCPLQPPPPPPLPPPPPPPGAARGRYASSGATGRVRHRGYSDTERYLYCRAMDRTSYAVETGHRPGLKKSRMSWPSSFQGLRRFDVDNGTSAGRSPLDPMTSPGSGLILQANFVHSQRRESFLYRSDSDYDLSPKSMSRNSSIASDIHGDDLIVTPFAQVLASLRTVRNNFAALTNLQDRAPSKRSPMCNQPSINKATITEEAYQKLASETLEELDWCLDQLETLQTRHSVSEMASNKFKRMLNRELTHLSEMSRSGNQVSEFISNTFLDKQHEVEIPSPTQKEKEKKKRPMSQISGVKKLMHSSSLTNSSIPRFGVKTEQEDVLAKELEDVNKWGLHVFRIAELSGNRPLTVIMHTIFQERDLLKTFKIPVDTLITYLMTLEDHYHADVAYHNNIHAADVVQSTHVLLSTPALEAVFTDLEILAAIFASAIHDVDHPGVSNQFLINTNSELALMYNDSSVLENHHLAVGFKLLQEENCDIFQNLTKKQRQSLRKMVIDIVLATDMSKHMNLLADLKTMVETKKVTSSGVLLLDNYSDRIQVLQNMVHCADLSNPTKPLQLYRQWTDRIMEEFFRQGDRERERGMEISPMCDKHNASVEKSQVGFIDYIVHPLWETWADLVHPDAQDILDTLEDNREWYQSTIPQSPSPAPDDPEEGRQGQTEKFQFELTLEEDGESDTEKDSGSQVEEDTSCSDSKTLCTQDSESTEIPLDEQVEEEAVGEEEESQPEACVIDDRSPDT
Chain of Cytochrome P450 2D6 (P10635 whole entry, the tested form may be a part): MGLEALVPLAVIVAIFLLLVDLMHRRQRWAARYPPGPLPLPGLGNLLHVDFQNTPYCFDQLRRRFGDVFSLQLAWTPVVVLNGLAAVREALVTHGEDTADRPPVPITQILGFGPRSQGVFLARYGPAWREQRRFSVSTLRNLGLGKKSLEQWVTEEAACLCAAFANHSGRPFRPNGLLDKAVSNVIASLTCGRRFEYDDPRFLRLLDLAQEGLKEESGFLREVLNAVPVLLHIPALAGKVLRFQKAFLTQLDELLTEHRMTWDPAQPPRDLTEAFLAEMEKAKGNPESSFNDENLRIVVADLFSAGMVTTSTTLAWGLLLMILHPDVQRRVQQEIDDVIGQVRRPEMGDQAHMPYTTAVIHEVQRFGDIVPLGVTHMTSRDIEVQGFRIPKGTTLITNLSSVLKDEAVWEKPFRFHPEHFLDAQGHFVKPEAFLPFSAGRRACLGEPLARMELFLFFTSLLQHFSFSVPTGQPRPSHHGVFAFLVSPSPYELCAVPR
Chain of cAMP and cAMP-inhibited cGMP 3',5'-cyclic phosphodiesterase 10A (Q9Y233 whole entry, the tested form may be a part): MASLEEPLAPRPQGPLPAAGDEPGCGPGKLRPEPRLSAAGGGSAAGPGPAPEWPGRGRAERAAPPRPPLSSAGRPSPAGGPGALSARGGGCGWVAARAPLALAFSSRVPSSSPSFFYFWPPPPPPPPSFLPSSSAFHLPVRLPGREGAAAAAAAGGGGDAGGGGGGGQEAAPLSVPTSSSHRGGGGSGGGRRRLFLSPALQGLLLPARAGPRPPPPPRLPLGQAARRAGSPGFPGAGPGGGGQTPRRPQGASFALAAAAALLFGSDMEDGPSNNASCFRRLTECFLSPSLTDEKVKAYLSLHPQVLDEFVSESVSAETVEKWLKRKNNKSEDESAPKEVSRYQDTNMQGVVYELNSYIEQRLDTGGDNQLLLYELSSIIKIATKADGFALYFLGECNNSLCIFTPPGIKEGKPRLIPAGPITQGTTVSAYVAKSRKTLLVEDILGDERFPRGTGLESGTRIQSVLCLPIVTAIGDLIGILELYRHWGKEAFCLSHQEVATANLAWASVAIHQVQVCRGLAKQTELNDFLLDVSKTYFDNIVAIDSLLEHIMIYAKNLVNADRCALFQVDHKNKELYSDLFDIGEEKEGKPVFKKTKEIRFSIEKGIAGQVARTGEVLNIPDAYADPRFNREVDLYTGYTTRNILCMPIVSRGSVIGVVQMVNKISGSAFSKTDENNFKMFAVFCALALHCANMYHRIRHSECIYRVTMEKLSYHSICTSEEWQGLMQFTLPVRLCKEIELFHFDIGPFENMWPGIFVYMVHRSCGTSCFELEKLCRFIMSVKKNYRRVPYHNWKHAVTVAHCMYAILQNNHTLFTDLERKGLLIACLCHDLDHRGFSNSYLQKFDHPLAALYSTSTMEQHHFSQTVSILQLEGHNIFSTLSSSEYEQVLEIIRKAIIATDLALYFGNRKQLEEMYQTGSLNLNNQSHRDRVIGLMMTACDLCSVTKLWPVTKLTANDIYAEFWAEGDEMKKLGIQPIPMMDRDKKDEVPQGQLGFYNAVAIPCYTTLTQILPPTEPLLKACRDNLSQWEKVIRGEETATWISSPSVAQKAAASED
Chain of Cytochrome P450 3A4 (P08684 whole entry, the tested form may be a part): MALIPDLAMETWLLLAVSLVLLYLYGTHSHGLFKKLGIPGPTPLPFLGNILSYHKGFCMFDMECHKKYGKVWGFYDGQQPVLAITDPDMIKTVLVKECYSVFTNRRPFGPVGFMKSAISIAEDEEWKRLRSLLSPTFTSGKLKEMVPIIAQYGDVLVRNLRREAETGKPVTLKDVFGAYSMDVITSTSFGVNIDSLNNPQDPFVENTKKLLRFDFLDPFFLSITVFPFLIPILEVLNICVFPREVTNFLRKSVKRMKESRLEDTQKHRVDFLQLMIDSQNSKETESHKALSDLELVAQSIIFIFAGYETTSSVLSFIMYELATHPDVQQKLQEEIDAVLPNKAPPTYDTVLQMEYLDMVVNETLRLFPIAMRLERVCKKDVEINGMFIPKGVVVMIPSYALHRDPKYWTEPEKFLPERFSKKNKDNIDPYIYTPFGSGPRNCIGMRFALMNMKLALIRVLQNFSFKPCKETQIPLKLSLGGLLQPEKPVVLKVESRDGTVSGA
Chain of High affinity cGMP-specific 3',5'-cyclic phosphodiesterase 9A (O76083 whole entry, the tested form may be a part): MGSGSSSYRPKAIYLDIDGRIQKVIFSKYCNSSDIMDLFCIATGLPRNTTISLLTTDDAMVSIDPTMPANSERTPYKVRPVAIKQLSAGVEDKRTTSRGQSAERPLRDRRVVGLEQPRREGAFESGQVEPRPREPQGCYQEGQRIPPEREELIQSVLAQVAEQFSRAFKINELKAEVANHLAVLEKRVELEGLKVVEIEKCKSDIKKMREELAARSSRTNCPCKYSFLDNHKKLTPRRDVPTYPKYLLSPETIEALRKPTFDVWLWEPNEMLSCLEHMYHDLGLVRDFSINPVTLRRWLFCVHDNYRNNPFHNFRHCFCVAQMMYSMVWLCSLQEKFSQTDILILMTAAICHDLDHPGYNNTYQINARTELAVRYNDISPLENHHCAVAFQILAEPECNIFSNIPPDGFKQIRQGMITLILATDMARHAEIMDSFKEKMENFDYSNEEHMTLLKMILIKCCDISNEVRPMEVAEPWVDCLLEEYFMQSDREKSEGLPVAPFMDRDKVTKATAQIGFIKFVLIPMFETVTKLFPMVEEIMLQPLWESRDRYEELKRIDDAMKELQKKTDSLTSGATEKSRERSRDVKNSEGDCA

C[C@@H](Nc1nc2c(cnn2C(C)(C)C)c(=O)n1Cc1ccc(F)cc1)c1ccc(Cl)cc1
IC50 [1]: > 25000 nM | IC50 [2]: > 10000 nM | Activity [3]: Active | Activity [4]: Dose-dependent effect | IC50 [5]: > 25000 nM | IC50 [6]: 6600 nM | MTD [7]: > 1500 mg/kg | Activity [8]: Dose-dependent effect | IC50 [9]: 1770 nM | Activity [10]: Active | IC50 [11]: > 25000 nM | IC50 [12]: 699 nM | Activity [13]: Active | Cmax [14]: 169 ng/mL | IC50 [15]: > 10000 nM | AUC(0-inf) [16]: 1320 ng·h/mL | Activity [17]: Active | half-life [18]: 5.5 h | Activity [19]: Active | half-life [20]: 0.263 to 0.267 h | IC50 [21]: 2020 nM | solubility [22]: 22 µg/mL (≈ 48.5 µM) | MRT last [23]: 6.88 h | bioavailability [24]: 34% | Activity [25]: Active | Activity [26]: Active | Activity [27]: Dose-dependent effect | IC50 [28]: 370 nM | Tmax [29]: 4 h | solubility [30]: 16 µg/mL (≈ 35.2 µM) | Fu [31]: 0.1% | MRT last [32]: 5.81 h | AUC(0-inf) [33]: 2100 ng·h/mL | AUC(0-t) [34]: 1930 ng·h/mL
